In the assay the target is T1, Human eIF4E (aa 28-217) / biotin labeled 4G2 peptide (Homo sapiens, UniProt P06730).
T1 construct: Human eIF4E (aa 28-217) with a C-terminal His-tag; made in house
The assay is described as follows: Human eIF4E/4G2 binding assay (TR-FRET). The note with it: TR-FRET eIF4E/4G2 peptide binding; 4 hours preincubation with eIF4E at room temperature. Here is the method: Example 3. Compound Testing in Human eIF4E/4G2 Binding Assay
Human eIF4E (aa 28-217) with a C-terminal His-tag was expressed in E. coli in inclusion bodies. The protein was solubilized with 8 M urea and purified under denaturing conditions using nickel-charged HisTrap HP columns (GE Healthcare). The purified protein was then refolded by diluting in 20 mM Hepes pH 7.0, 0.5 M NaCl, 1 mM DTT, 1 mM EDTA, 0.5 M arginine plus 6 M urea, and then dialyzing overnight into the same buffer without the urea. The protein was further dialyzed into 20 mM Hepes, pH 6.5, 50 mM NaCl, 1 mM EDTA, 1 mM DTT, and concentrated using Hitrap SP sepharose FF columns (GE Healthcare). The concentrated protein was dialyzed into 20 mM Hepes, pH 7.0, 0.5M NaCl, 5 mM DTT and 10% glycerol, and stored at −80° C. until use.
Test compounds (3.43 mM stock in DMSO) were diluted 2-fold in series in DMSO (10 concentration points). Compound solutions (1.2 μl/well) were added into black 384-well polypropylene microplates (Matrix, Thermal Scientific). Twenty-two microliters per well of Assay Buffer (50 mM NaPi, pH 6.5, 50 mM KCl, 1 mM DTT and 0.5 mg/ml gamma globulin) and eight microliters per well of 82.5 nM purified eIF4E in Assay Buffer were added. The samples were incubated at room temperature (20-23° C.) for 4 hours. Biotin labeled 4G2 peptide (Ac-Lys-Gln-Tyr-Asp-Arg-Glu-Phe-Leu-Leu-Asp-Phe-Gln-Phe-Met-Pro-Lys(Aha-Bio)-NH2, 1.75 μM stock in DMSO) was diluted to 0.14 μM in Assay Buffer (without DTT) and 5 μl/well was added. The samples were incubated at room temperature for 20 min. Five microliters per well of 6.4 nM Eu-streptavidin (Eu-SA, Perkin Elmer) and 80 nM Allophycocyanin (APC)-anti His antibody (Columbia Biosciences) in Assay Buffer (without DTT) were then added and the samples were incubated at room temperature for 20 min.
Assay signals were monitored by reading excitation at 340 nm and emission fluorescence at 615 nm and 665 nm on an Envision reader (Perkin Elmer). Normalized TR-FRET (time-resolved fluorescence resonance energy transfer) assay signal (Rn) was calculated by the formula: Rn=[(A−Ba−C×D)/(D−Bd)]×(Dc−Bd) Where A is the fluorescence intensity of the sample at 665 nm, D is the fluorescence intensity of the sample at 615 nm, Ba and Bd are plate backgrounds at 665 nm and 615 nm, respectively, Dc is the fluorescence intensity of 0.78 nM Eu-SA in the assay buffer at 615 nm The cross-talk factor (C) is determined by the following formula: C=(Ac−Ba)/(Dc−Bd) Where Ac is the fluorescence intensity of 0.78 nM Eu-SA in the assay buffer at 665 nm.
IC50 values were calculated using xLFit program (IDBS). Table 3 below lists IC50 of some compounds, wherein A represents IC50<0.5 μM; B represents 500 nM<IC50<1 μM; and C represents IC50>1 μM.

T1 sequence (P06730 28-217): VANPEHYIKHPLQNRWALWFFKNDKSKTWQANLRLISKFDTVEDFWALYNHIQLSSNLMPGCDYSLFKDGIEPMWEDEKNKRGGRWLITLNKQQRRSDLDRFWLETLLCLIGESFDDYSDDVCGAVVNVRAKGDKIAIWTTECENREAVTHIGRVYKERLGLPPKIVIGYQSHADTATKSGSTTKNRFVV

As a reminder, the IC50 is the concentration at which inhibition is half-maximal. Read a low IC50 as greater potency. On to `COc1ccc(-c2sc(Nc3ncc(-c4cccs4)cc3C(=O)O)nc2C2CC2)cc1` [I-54], for which the IC50 is less than 500 nM.

`COc1cc(-c2sc(Nc3ncc(-c4cccs4)cc3C(=O)O)nc2CC(C)C)ccc1F` [I-55] displayed an IC50 of 500 to 1000 nM.

The values are drawn from US12157732B2, “eIF4E inhibitors and uses thereof” (PIC Therapeutics, Inc., priority 2021, dated 2024).
